Values belong to the compound of their own block, whether it stands above or below them. Calls of active or inactive are those of the source. The rule behind the calls is not given here.
Experiments:
[1] = tested on: MCF7; experiment: Photo-toxicity in human MCF7 cells treated for 24 hrs followed by irradiated with 660 nm of diode laser light at 50mW for 30 mins measured after 24 hrs by MTT assay; type: functional, cell-based; details: MCF7, light or radiation study
[2] = Intracellular uptake in human MCF7 cell lysosomes at 10 uM after 4 hrs using Hoechst staining by fluorescence microscopic analysis; type: ADME, cell-based, Lysosome; details: mcf7, 4 h
[3] = tested on: MCF7; experiment: Dark toxicity in human MCF7 cells up to 40 uM after 24 hrs by MTT assay; type: cell-based; details: mcf7, 24 h
[4] = Intracellular uptake in human MCF7 cell mitochondria at 10 uM after 4 hrs using Hoechst staining by fluorescence microscopic analysis; type: ADME; details: mcf7, 4 h
[5] = Intracellular uptake in human MCF7 cell nucleus at 10 uM after 4 hrs using Hoechst staining by fluorescence microscopic analysis; type: ADME, cell-based; details: mcf7, 4 h
[6] = Intracellular uptake in human MCF7 cell mitochondria at 10 uM after 4 hrs using mitotracker green staining by fluorescence microscopic analysis; type: ADME; details: mcf7, 4 h
[7] = Intracellular uptake in human MCF7 cell F-actin filament at 10 uM after 4 hrs using Hoechst staining by fluorescence microscopic analysis; type: ADME, cell-based; details: mcf7, 4 h
[8] = tested on: MCF7; experiment: Cellular uptake in human MCF7 cells assessed as increase of intracellular fluorescence after 20 mins using alexa fluor 488, phalloidin 488/525, mito-tracker 490/516 staining by fluorescence microscopic analysis; type: ADME, cell-based; details: mcf7, 20 min
[9] = tested on: MCF7; experiment: Cellular uptake in human MCF7 cells assessed as increase of intracellular fluorescence up to 60 mins using alexa fluor 488, phalloidin 488/525, mito-tracker 490/516 staining by fluorescence microscopic analysis; type: ADME, cell-based; details: mcf7, 1 h
[10] = tested on: MCF7; experiment: Cellular uptake in human MCF7 cells assessed as increase of intracellular fluorescence after 1 hr using alexa fluor 488, phalloidin 488/525, mito-tracker 490/516 staining by FACS analysis relative to control; type: ADME, cell-based; details: mcf7, 1 h
[11] = tested on: MCF7; experiment: Induction of ROS production in human MCF7 cells treated for 1 hr followed by irradiated with 660 nm of diode laser light at 50mW for 30 mins using DCFDA by fluorescence microscopic analysis; type: functional, cell-based
[12] = tested on: MCF7; experiment: Induction of mitochondrial membrane disruption in human MCF7 cells assessed as calcein-AM accumulation in mitochondria at 1 to 3 uM treated for 1 hr followed by irradiated with 660 nm of diode laser light at 50mW for 30 mins measured after 45 mins by fluorescence assay; type: functional, cell-based
[13] = tested on: MCF7; experiment: Induction of mitochondrial membrane disruption in human MCF7 cells assessed as calcein-AM accumulation in cytosol treated for 1 hr followed by irradiated with 660 nm of diode laser light at 50mW for 30 mins measured after 45 mins by fluorescence assay; type: functional, cell-based
[14] = tested on: MCF7; experiment: Induction of mitochondrial membrane disruption in human MCF7 cells assessed as calcein-AM accumulation in mitochondria treated for 1 hr followed by irradiated with 660 nm of diode laser light at 50mW for 30 mins measured after 45 mins by fluorescence assay; type: functional, cell-based
[15] = tested on: MCF7; experiment: Induction of extrinsic apoptosis in human MCF7 cells assessed as increase of casepase-3 level at 3 to 5 uM treated for 1 hr followed by irradiated with 660 nm of diode laser light at 50mW for 30 mins measured after 45 mins using (z-DEVD)2-Magic Red by fluorescence assay; type: functional, cell-based
[16] = tested on: MCF7; experiment: (§1) Induction of intrinsic apoptosis in human MCF7 cells assessed as increase of casepase-9 level at 3 to 5 uM treated for 1 hr followed by irradiated with 660 nm of diode laser light at 50mW for 30 mins measured after 45 mins using (Ac-LEHD)2-Rh110 by fluorescence assay; type: functional, cell-based
[17] = tested on: MCF7; experiment: Induction of extrinsic apoptosis in human MCF7 cells assessed as increase of casepase-3 level at 5 uM treated for 1 hr followed by irradiated with 660 nm of diode laser light at 50mW for 30 mins measured after 45 mins using (z-DEVD)2-Magic Red by fluorescence assay; type: functional, cell-based
[18] = tested on: MCF7; experiment: as §1, with “assay in presence of caspase-2 inhibitor” for “assay”; type: functional, cell-based
[19] = tested on: MCF7; experiment: Induction of extrinsic apoptosis in human MCF7 cells assessed as increase of casepase-3 level at 5 uM treated for 1 hr followed by irradiated with 660 nm of diode laser light at 50mW for 30 mins measured after 45 mins using (z-DEVD)2-Magic Red by fluorescence assay in presence of caspase-2 inhibitor; type: functional, cell-based
[20] = tested on: MCF7; experiment: (§2) Induction of extrinsic apoptosis in human MCF7 cells assessed as increase of […] level at 6 uM treated for 1 hr followed by irradiated with 660 nm of diode laser light at 50mW for 30 mins measured after 45 mins using (z-IETD)2-Rh110 by fluorescence assay; type: functional, cell-based
[21] = tested on: MCF7; experiment: (§3) Induction of extrinsic apoptosis in human MCF7 cells assessed as increase of casepase-3 level at 6 uM treated for 1 hr followed by irradiated with 660 nm of diode laser light at 50mW for 30 mins measured after 45 mins using (z-DEVD)2-Magic Red by fluorescence assay; type: functional, cell-based
[22] = tested on: MCF7; experiment: as §2, with “assay in presence of caspase-8 inhibitor Z-IETD-FMK” for “assay”; type: functional, cell-based
[23] = tested on: MCF7; experiment: as §3, with “assay in presence of caspase-8 inhibitor Z-IETD-FMK” for “assay”; type: functional, cell-based
[24] = tested on: MCF7; experiment: Induction of DNA fragmentation in human MCF7 cell nucleus treated at 5 uM followed by irradiated with 660 nm of diode laser light at 50mW for 30 mins by DNA ladder assay; type: functional, cell-based

Drug uptake [2]: Active
SMILES: O=S(=O)(O)c1ccc(-c2c3nc(c(-c4ccc(S(=O)(=O)O)cc4)c4ccc([nH]4)c(-c4ccc(S(=O)(=O)O)cc4)c4nc(c(-c5ccc(S(=O)(=O)O)cc5)c5ccc2[nH]5)C=C4)C=C3)cc1
IC50 [1]: 11.8 µM

Drug uptake [4]: Active
Drug uptake [5]: Active
Drug uptake [6]: Active
Drug uptake [7]: Not Active
Drug uptake [2]: Not Active
Drug uptake [8]: Active
Drug uptake [9]: Active
fold change (FC) [10]: 3
SMILES: O=S(=O)([O-])c1cccc2cc(-c3c4nc(c(-c5cc6cccc(S(=O)(=O)[O-])c6s5)c5ccc([nH]5)c(-c5cc6cccc(S(=O)(=O)[O-])c6s5)c5nc(c(-c6cc7cccc(S(=O)(=O)[O-])c7s6)c6ccc3[nH]6)C=C5)C=C4)sc12.[Na+].[Na+].[Na+].[Na+]
Activity [3]: Non-toxic
IC50 [1]: 5 µM
Activity [11]: Dose-dependent effect
Activity [12]: Active
Activity [13]: Dose-dependent effect
Activity [14]: Dose-dependent effect
Activity [15]: Active
Activity [16]: Active
Activity [17]: Active
Activity [18]: inactive
Activity [19]: inactive
Activity [20]: Active
Activity [21]: Active
Activity [22]: inactive
Activity [23]: inactive
Activity [24]: Active

Source: ChEMBL document CHEMBL3603754, “Mitochondria and DNA Targeting of 5,10,15,20-Tetrakis(7-sulfonatobenzo[b]thiophene) Porphyrin-Induced Photodynamic Therapy via Intrinsic and Extrinsic Apoptotic Cell Death” (J Med Chem, 2015)
